Results from US12144795B2, “Cannabidiol compositions having modified cannabinoid profiles” (priority 2018, dated 2024).

Assay: Stability studies of CBD prepared via Protocol 3 (crude, pure, 2x recrystallized; 5° C., 25° C./60% RH, 40° C./75% RH)
Assay type: physicochemical

Compound: C=C(C)[C@@H]1CCC(C)=C[C@H]1c1c(O)cc(CCCCC)cc1O [Pure CBD]
- Related substances by HPLC (low level): Δ9-Tetrahydrocannabinol (25° C./60% RH, 0 month): 26 ppm
- Water content in % w/w (25° C./60% RH, 0 month): <0.05%
- Appearance (25° C./60% RH, 1 month): Off-White Powder
- Assay by HPLC (25° C./60% RH, 1 month): 99.7%
- Each unspecified impurity: RRT~1.927 (25° C./60% RH, 1 month): RRT~1.927: 0.06%
- Related substances by HPLC (low level): Δ8-Tetrahydrocannabinol (25° C./60% RH, 1 month): 25 ppm
- Related substances by HPLC (low level): Δ9-Tetrahydrocannabinol (25° C./60% RH, 1 month): 21 ppm
- Related substances by HPLC: 4-Monobromo-CBD (25° C./60% RH, 1 month): <0.03% (ND)
- Related substances by HPLC: Olivetol (25° C./60% RH, 1 month): <0.03% (ND)
- Related substances by HPLC: Sum of impurities, ≥0.05% (25° C./60% RH, 1 month): 0.06%
- Related substances by HPLC: Δ8-Tetrahydrocannabinol (25° C./60% RH, 1 month): <0.02% (ND)
- Related substances by HPLC: Δ9-Tetrahydrocannabinol (25° C./60% RH, 1 month): <0.02% (ND)
- Appearance (25° C./60% RH, 2 months): Off-White Powder
- Assay by HPLC (25° C./60% RH, 2 months): 100.3%
- Each unspecified impurity: RRT~1.935 (25° C./60% RH, 2 months): RRT~1.935: 0.08%
- Related substances by HPLC (low level): Δ8-Tetrahydrocannabinol (25° C./60% RH, 2 months): 21 ppm
- Related substances by HPLC (low level): Δ9-Tetrahydrocannabinol (25° C./60% RH, 2 months): 14 ppm
- Related substances by HPLC: 4-Monobromo-CBD (25° C./60% RH, 2 months): <0.03% (ND)
- Related substances by HPLC: Olivetol (25° C./60% RH, 2 months): <0.03% (ND)
- Related substances by HPLC: Sum of impurities, ≥0.05% (25° C./60% RH, 2 months): 0.08%
- Related substances by HPLC: Δ8-Tetrahydrocannabinol (25° C./60% RH, 2 months): <0.02% (ND)
- Related substances by HPLC: Δ9-Tetrahydrocannabinol (25° C./60% RH, 2 months): <0.02% (ND)
- Appearance (25° C./60% RH, 3 months): Off-white
- Assay by HPLC (25° C./60% RH, 3 months): 98.5%
- Each unspecified impurity: RRT~1.982 (25° C./60% RH, 3 months): RRT~1.982: 0.03%
- Related substances by HPLC (low level): Δ8-Tetrahydrocannabinol (25° C./60% RH, 3 months): 36 ppm
- Related substances by HPLC (low level): Δ9-Tetrahydrocannabinol (25° C./60% RH, 3 months): <4 ppm (2 ppm)
- Related substances by HPLC: 4-Monobromo-CBD (25° C./60% RH, 3 months): <0.03% (ND)
- Related substances by HPLC: Olivetol (25° C./60% RH, 3 months): <0.03% (ND)
- Related substances by HPLC: Sum of impurities, ≥0.05% (25° C./60% RH, 3 months): <0.05%
- Related substances by HPLC: Δ8-Tetrahydrocannabinol (25° C./60% RH, 3 months): <0.02% (ND)
- Related substances by HPLC: Δ9-Tetrahydrocannabinol (25° C./60% RH, 3 months): <0.02% (ND)
- Related substances by HPLC (low level): Δ9-Tetrahydrocannabinol (40° C./75% RH, 0 month): 26 ppm
- Water content in % w/w (40° C./75% RH, 0 month): <0.05%
- Appearance (40° C./75% RH, 1 month): Off-White
- Assay by HPLC (40° C./75% RH, 1 month): 99.5%
- Each unspecified impurity: RRT~1.929 (40° C./75% RH, 1 month): 0.05%
- Related substances by HPLC (low level): Δ8-Tetrahydrocannabinol (40° C./75% RH, 1 month): 22 ppm
- Related substances by HPLC (low level): Δ9-Tetrahydrocannabinol (40° C./75% RH, 1 month): 14 ppm
- Related substances by HPLC: 4-Monobromo-CBD (40° C./75% RH, 1 month): <0.03% (ND)
- Related substances by HPLC: Olivetol (40° C./75% RH, 1 month): <0.03% (ND)
- Related substances by HPLC: Sum of impurities, ≥0.05% (40° C./75% RH, 1 month): 0.05%
- Related substances by HPLC: Δ8-Tetrahydrocannabinol (40° C./75% RH, 1 month): <0.02% (ND)
- Related substances by HPLC: Δ9-Tetrahydrocannabinol (40° C./75% RH, 1 month): <0.02% (ND)
- Appearance (40° C./75% RH, 2 months): Off-White
- Assay by HPLC (40° C./75% RH, 2 months): 100.2%
- Each unspecified impurity: RRT~1.932 (40° C./75% RH, 2 months): 0.07%
- Related substances by HPLC (low level): Δ8-Tetrahydrocannabinol (40° C./75% RH, 2 months): 20 ppm
- Related substances by HPLC (low level): Δ9-Tetrahydrocannabinol (40° C./75% RH, 2 months): 9 ppm
- Related substances by HPLC: 4-Monobromo-CBD (40° C./75% RH, 2 months): <0.03% (ND)
- Related substances by HPLC: Olivetol (40° C./75% RH, 2 months): <0.03% (ND)
- Related substances by HPLC: Sum of impurities, ≥0.05% (40° C./75% RH, 2 months): 0.07%
- Related substances by HPLC: Δ8-Tetrahydrocannabinol (40° C./75% RH, 2 months): <0.02% (ND)
- Related substances by HPLC: Δ9-Tetrahydrocannabinol (40° C./75% RH, 2 months): <0.02% (ND)
- Appearance (40° C./75% RH, 3 months): Off-white
- Assay by HPLC (40° C./75% RH, 3 months): 98.8%
- Each unspecified impurity: RRT~1.983 (40° C./75% RH, 3 months): 0.03%
- Related substances by HPLC (low level): Δ8-Tetrahydrocannabinol (40° C./75% RH, 3 months): 30 ppm
- Related substances by HPLC (low level): Δ9-Tetrahydrocannabinol (40° C./75% RH, 3 months): <4 ppm (ND)
- Related substances by HPLC: 4-Monobromo-CBD (40° C./75% RH, 3 months): <0.03% (ND)
- Related substances by HPLC: Olivetol (40° C./75% RH, 3 months): <0.03% (ND)
- Related substances by HPLC: Sum of impurities, ≥0.05% (40° C./75% RH, 3 months): <0.05%
- Related substances by HPLC: Δ8-Tetrahydrocannabinol (40° C./75% RH, 3 months): <0.02% (ND)
- Related substances by HPLC: Δ9-Tetrahydrocannabinol (40° C./75% RH, 3 months): <0.02% (ND)
- Appearance (40° C./75% RH, 5 months): Off-white
- Assay by HPLC (40° C./75% RH, 5 months): 99.9%
- Each unspecified impurity: RRT~1.918 (40° C./75% RH, 5 months): 0.04%
- Related substances by HPLC (low level): Δ8-Tetrahydrocannabinol (40° C./75% RH, 5 months): 36 ppm
- Related substances by HPLC (low level): Δ9-Tetrahydrocannabinol (40° C./75% RH, 5 months): 6 ppm
- Related substances by HPLC: 4-Monobromo-CBD (40° C./75% RH, 5 months): <0.03% (ND)
- Related substances by HPLC: Olivetol (40° C./75% RH, 5 months): <0.03% (ND)
- Related substances by HPLC: Sum of impurities, ≥0.05% (40° C./75% RH, 5 months): <0.05%
- Related substances by HPLC: Δ8-Tetrahydrocannabinol (40° C./75% RH, 5 months): <0.02% (ND)
- Related substances by HPLC: Δ9-Tetrahydrocannabinol (40° C./75% RH, 5 months): <0.02% (ND)
